Results: US11999723B2, “Pyrazole-containing macrophage migration inhibitory factor inhibitors” (priority 2018, dated 2024)

Molecular target: MIF (Homo sapiens (Human), UniProt P14174)
Assay: HPP tautomerase assay (inhibition of the tautomerase activity of MIF)
Assay type: biochemical
Settings: not given
Experimental: Inhibition of the tautomerase activity of MIF was measured using the substrate 4-hydroxyphenyl pyruvic acid (HPP) in a procedure largely adapted from previous reports. A solution of HPP (10 mM) in acetate buffer (0.5 M ammonium acetate, pH adjusted to 6.0) was prepared and allowed to incubate overnight in the dark at room temperature to allow for equilibration of the keto and enol forms. Following the incubation period, the HPP solution was stored at 4° C. and used for no more than a week. […] A negative control (containing water and DMSO in lieu of protein and inhibitor, respectively) and a positive control (containing DMSO in lieu of inhibitor) were also prepared. The reaction began upon the addition of HPP solution (final concentration: 1.0 mM and 2.5 mM). […] Absorbance was measured three times for each [inhibitor]-[HPP] combination. […] Reported Ki values represent the average value obtained from two assays performed on different days. (R)-ISO-1 (purchased from Santa Cruz Biotechnology) was used as a control.
Recombinant human MIF was expressed and purified according to published protocols. Briefly, for the purification of MIF, E. coli cell pellets were suspended in lysis buffer (20 mM Tris, pH 7.5; 20 mM sodium chloride; 10% glycerol; 2 mM magnesium chloride; 1 cOmplete mini protease inhibitor cocktail tablet per 250 mL of buffer). The solution was sonicated and centrifuged at 27,000G for 30 mins. The supernatant was filtered through a 0.22 μm syringe filter and loaded on a GE Healthcare Hi-Trap SP HP column in sequence with a GE Healthcare Hi-Trap Q SP column equilibrated with a buffer composed of 20 mM NaCl and 20 mM Tris, pH 7.5. […] To achieve highest purity, the flow-through was further purified with a GE Healthcare Superdex 200 column. The purified protein was concentrated with a 10 kDa centrifugal filter unit to 30 mg/mL, flash-frozen in liquid nitrogen, and stored at −80° C.
As in prior studies, the inhibition constants Ki were determined using HPP as the substrate. […] In addition, the aqueous solubilities of several compounds were measured with a shake-flask procedure.

MIF, sequence (P14174 2-115): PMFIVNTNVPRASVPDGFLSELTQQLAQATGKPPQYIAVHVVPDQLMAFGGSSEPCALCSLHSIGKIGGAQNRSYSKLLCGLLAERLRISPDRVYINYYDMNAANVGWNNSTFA

Work on `O=C(O)c1cc(-c2cn[nH]c2)ccc1-c1ccc2ccccc2c1` [Compound 6c, 2-(Naphthalen-2-yl)-5-(1H-pyrazol-4-yl)benzoic acid] yielded a Ki of 5 µM.

Same assay, conditions: HPP as substrate; MIF tautomerase; read-out: Experimental inhibition constants, Ki

Compared with `O=C(O)c1cc(-c2cn[nH]c2)ccc1-c1ccccc1` [Compound 6a, 4-(1H-pyrazol-4-yl)-[1,1′-biphenyl]-2-carboxylic acid], `O=C(O)c1cc(-c2cn[nH]c2)ccc1Nc1ccccc1` [Compound 7a, 2-(Phenylamino)-5-(1H-pyrazol-4-yl)benzoic acid] is 1.6-fold lower in Ki: 20.6 µM for the first, 12.7 µM for the second. The second binds more tightly here.

Compared with `Cc1cc(C)cc(-c2cccc(Oc3ccc(-c4c[nH]nc4F)cc3C(=O)O)c2)c1` [Compound 8v, 2-((3′,5′-Dimethyl-[1,1′-biphenyl]-3-yl)oxy)-5-(3-fluoro-1H-pyrazol-4-yl)benzoic acid], `O=C(O)c1cc(-c2c[nH]nc2F)ccc1Oc1cccc(-c2ccccc2)c1` [Compound 8u, 2-([1,1′-Biphenyl]-3-yloxy)-5-(3-fluoro-1H-pyrazol-4-yl)benzoic acid] is 1.8-fold lower in Ki: 0.24 µM for the first, 0.13 µM for the second.

Compared with `O=C(O)c1cc(-c2cn[nH]c2)ccc1-c1cccc2ccccc12` [Compound 6b, 2-(Naphthalen-1-yl)-5-(1H-pyrazol-4-yl)benzoic acid], `O=C(O)c1cc(-c2cn[nH]c2)ccc1-c1ccc2ccccc2c1` [Compound 6c, 2-(Naphthalen-2-yl)-5-(1H-pyrazol-4-yl)benzoic acid] is 3.6-fold lower in Ki: 19.5 µM for the first, 5.4 µM for the second. The second binds more tightly here.

Compared with `O=C(O)c1cc(-c2cn[nH]c2)ccc1Oc1ccccc1` [Compound 8a, 2-Phenoxy-5-(1H-pyrazol-4-yl)benzoic acid], `Cc1ccccc1Oc1ccc(-c2cn[nH]c2)cc1C(=O)O` [Compound 8b, 5-(1H-Pyrazol-4-yl)-2-(o-tolyloxy)benzoic acid] is 1.6-fold lower in Ki: 6.8 µM for the first, 4.3 µM for the second.

Compared with `O=C(O)c1cc(-c2c[nH]nc2F)ccc1Oc1cc(C2CC2)c2ccccc2c1` [Compound 8r, 2-((4-Cyclopropylnaphthalen-2-yl)oxy)-5-(3-fluoro-1H-pyrazol-4-yl)benzoic acid], `CCc1ccc2c(C3CC3)cc(Oc3ccc(-c4c[nH]nc4F)cc3C(=O)O)cc2c1` [Compound 8s, 2-((4-Cyclopropyl-7-ethylnaphthalen-2-yl)oxy)-5-(3-fluoro-1H-pyrazol-4-yl)benzoic acid] is 1.7-fold lower in Ki: 0.11 µM for the first, 0.066 µM for the second.

`CCc1ccc2ccc(Oc3ccc(-c4c[nH]nc4F)cc3C(=O)O)cc2c1` [Compound 8q, 2-((7-Ethylnaphthalen-2-yl)oxy)-5-(3-fluoro-1H-pyrazol-4-yl)benzoic acid] and `CCc1cccc2cc(Oc3ccc(-c4c[nH]nc4F)cc3C(=O)O)ccc12` [Compound 8p, 2-((5-Ethylnaphthalen-2-yl)oxy)-5-(3-fluoro-1H-pyrazol-4-yl)benzoic acid] are within 1.5-fold of each other in Ki: 0.14 µM for the first, 0.17 µM for the second.

First: O=C(O)c1cc(-c2cn[nH]c2)ccc1OC1C2CC3CC(C2)CC1C3 (stereo not drawn) [Compound 8k, 2-((Adamantan-2-yl)oxy)-5-(1H-pyrazol-4-yl)benzoic acid]
Second: Cc1ccc(Oc2ccc(-c3cn[nH]c3)cc2C(=O)O)cc1 [Compound 8d, 5-(1H-Pyrazol-4-yl)-2-(p-tolyloxy)benzoic acid]
The Ki of the first is 2.7-fold lower: 2.6 µM for the first, 7 µM for the second.

First: O=C(O)c1cc(-c2c[nH]nc2F)ccc1Oc1cccc2ccccc12 [Compound 8m, 5-(3-Fluoro-1H-pyrazol-4-yl)-2-(naphthalen-1-yloxy)benzoic acid]
Second: CCc1cc(Oc2ccc(-c3c[nH]nc3F)cc2C(=O)O)cc2ccccc12 [Compound 8o, 2-((4-Ethylnaphthalen-2-yl)oxy)-5-(3-fluoro-1H-pyrazol-4-yl)benzoic acid]
The Ki of the first is 3.2-fold higher: 0.48 µM for the first, 0.15 µM for the second. The second binds more tightly here.

Going from `CN(c1ccc2ccccc2c1)c1ccc(-c2cn[nH]c2)cc1C(=O)O` [Compound 7b, 2-(Methyl(naphthalen-2-yl)amino)-5-(1H-pyrazol-4-yl)benzoic acid] to `O=C(O)c1cc(-c2cn[nH]c2)ccc1Oc1cc2ccccc2c2ccccc12` [Compound 8j, 2-(Phenanthren-9-yloxy)-5-(1H-pyrazol-4-yl)benzoic acid], the Ki falls from 4.2 µM to 2.3 µM (1.8-fold).

Compared with `O=C(O)c1cc(-c2cn[nH]c2)ccc1Oc1ccc(F)cc1` [Compound 8f, 2-(4-Fluorophenoxy)-5-(1H-pyrazol-4-yl)benzoic acid], `O=C(O)c1cc(-c2cn[nH]c2)ccc1Oc1cccc(F)c1` [Compound 8e, 2-(3-Fluorophenoxy)-5-(1H-pyrazol-4-yl)benzoic acid] is 2.7-fold lower in Ki: 4.6 µM for the first, 1.7 µM for the second. The second binds more tightly here.

Going from `O=C(O)c1cc(-c2cn[nH]c2)ccc1Oc1cc2c3c(cccc3c1)CC2` [Compound 8l, 2-((1,2-Dihydroacenaphthylen-4-yl)oxy)-5-(1H-pyrazol-4-yl)benzoic acid] to `O=C(O)c1cc(-c2c[nH]nc2F)ccc1Oc1ccc(-c2ccccc2)cc1` [Compound 8t, 2-([1,1′-Biphenyl]-4-yloxy)-5-(3-fluoro-1H-pyrazol-4-yl)benzoic acid], the Ki falls from 1.1 µM to 0.35 µM (3.1-fold).

Same assay, conditions: HPP tautomerase assay

`CCc1ccc2ccc(Oc3ccc(-c4c[nH]nc4F)cc3C(=O)O)cc2c1` [Compound 8q, 2-((7-Ethylnaphthalen-2-yl)oxy)-5-(3-fluoro-1H-pyrazol-4-yl)benzoic acid] and `CCc1cccc2cc(Oc3ccc(-c4c[nH]nc4F)cc3C(=O)O)ccc12` [Compound 8p, 2-((5-Ethylnaphthalen-2-yl)oxy)-5-(3-fluoro-1H-pyrazol-4-yl)benzoic acid] are the same in “lowering of the Ki relative to 8n” value: 3 fold for the first, 3 fold for the second.

`CCc1cc(Oc2ccc(-c3c[nH]nc3F)cc2C(=O)O)cc2ccccc12` [Compound 8o, 2-((4-Ethylnaphthalen-2-yl)oxy)-5-(3-fluoro-1H-pyrazol-4-yl)benzoic acid] was tested, and the “lowering of the Ki relative to 8n” value was 3 fold.

Same assay, conditions: Table 3; HPP as substrate; unit inferred; read-out: HPP Ki

`O=C(O)c1cc(-c2c[nH]nc2F)ccc1Oc1ccc2ccc(C3CC3)cc2c1` [Compound 9x, 2-((7-cyclopropylnaphthalen-2-yl)oxy)-5-(3-fluoro-1H-pyrazol-4-yl)benzoic acid] and `O=C(O)c1cc(-c2c[nH]nc2F)ccc1Oc1ccc2c(C3CC3)cccc2c1` [Compound 9z, 2-((5-cyclopropylnaphthalen-2-yl)oxy)-5-(3-fluoro-1H-pyrazol-4-yl)benzoic acid] are within 1.5-fold of each other in Ki: 0.15 µM for the first, 0.11 µM for the second.

Compared with `O=C(O)c1cc(-c2cn[nH]c2)ccc1Oc1cccc2ccoc12` [Compound 9m, 2-(benzofuran-7-yloxy)-5-(1H-pyrazol-4-yl)benzoic acid], `O=C(O)c1cc(-c2cn[nH]c2)ccc1Oc1ccc2ccoc2c1` [Compound 9p, 2-(benzofuran-6-yloxy)-5-(1H-pyrazol-4-yl)benzoic acid] is 2.5-fold lower in Ki: 3.7 µM for the first, 1.5 µM for the second.

Going from `COc1ccc(Oc2ccc(-c3cn[nH]c3)cc2C(=O)O)cc1` [Compound 9h, 2-(4-methoxyphenoxy)-5-(1H-pyrazol-4-yl)benzoic acid] to `O=C(O)c1cc(-c2cn[nH]c2)ccc1Oc1ccc(Cl)cc1` [Compound 9g, 2-(4-chlorophenoxy)-5-(1H-pyrazol-4-yl)benzoic acid], the Ki rises from 2.3 µM to 8.4 µM (3.7-fold). The first binds more tightly here.

Going from `O=C(O)c1cc(-c2c[nH]nc2F)ccc1Oc1cccc(C(F)(F)F)c1` [Compound 9w, 5-(3-fluoro-1H-pyrazol-4-yl)-2-(3-(trifluoromethyl)phenoxy) benzoic acid] to `O=C(O)c1cc(-c2c[nH]nc2F)ccc1Oc1cccc(F)c1` [Compound 9t, 5-(3-fluoro-1H-pyrazol-4-yl)-2-(3-fluorophenoxy)benzoic acid], the Ki rises from 0.71 µM to 2.1 µM (3-fold). The first binds more tightly here.

`CC(=O)NCCc1ccc(Oc2ccc(-c3cn[nH]c3)cc2C(=O)O)cc1` [Compound 9l, 2-(4-(2-acetamidoethyl)phenoxy)-5-(1H-pyrazol-4-yl)benzoic acid] and `O=C(O)c1cccc(Oc2ccc(-c3cn[nH]c3)cc2C(=O)O)c1` [Compound 9n, 2-(3-carboxyphenoxy)-5-(1H-pyrazol-4-yl)benzoic acid] are within 1.5-fold of each other in Ki: 11 µM for the first, 9.4 µM for the second.

Going from `Cc1n[nH]cc1-c1ccc(Oc2ccc3ccccc3c2)c(C(=O)O)c1` [Compound 9cc, 5-(3-methyl-1H-pyrazol-4-yl)-2-(naphthalen-2-yloxy)benzoic acid] to `O=C(O)c1cc(-c2c[nH]nc2F)ccc1Oc1cc2c3c(cccc3c1)CC2` [Compound 9v, 2-((1,2-dihydroacenaphthylen-4-yl)oxy)-5-(3-fluoro-1H-pyrazol-4-yl)benzoic acid], the Ki falls from 15 µM to 0.1 µM (150-fold).

Going from `O=C(O)c1cc(-c2cn[nH]c2)ccc1Oc1cc2c3c(cccc3c1)C=C2` [Compound 9q, 2-(acenaphthylen-4-yloxy)-5-(1H-pyrazol-4-yl)benzoic acid] to `O=C(O)c1cc(-c2cn[nH]c2)ccc1Oc1cccc(Cl)c1` [Compound 9f, 2-(3-chlorophenoxy)-5-(1H-pyrazol-4-yl)benzoic acid], the Ki rises from 1.5 µM to 20 µM (13-fold).

`O=C(O)c1cc(-c2c[nH]nc2F)ccc1Oc1ccc2c(c1)CCCC2` [Compound 9y, 5-(3-fluoro-1H-pyrazol-4-yl)-2-((5,6,7,8-tetrahydronaphthalen-2-yl)oxy)benzoic acid] and `O=C(O)c1cc(-c2c[nH]nc2F)ccc1Oc1cccc(-c2ccc(CCN3CCOCC3)cc2)c1` [Compound 9bb, 5-(3-fluoro-1H-pyrazol-4-yl)-2-((4′-(2-morpholinoethyl)-[1,1′-biphenyl]-3-yl)oxy)benzoic acid] are within 1.5-fold of each other in Ki: 0.26 µM for the first, 0.33 µM for the second.

Compared with `O=C(O)c1cc(-c2cn[nH]c2)ccc1[S+]([O-])c1ccccc1` (stereo not drawn) [Compound 9r, 2-(phenylsulfinyl)-5-(1H-pyrazol-4-yl)benzoic acid], `Cc1ccc(-c2cn[nH]c2)cc1C(=O)O` [Compound 9e, 2-methyl-5-(1H-pyrazol-4-yl)benzoic acid] is 4.6-fold higher in Ki: 13 µM for the first, 60 µM for the second. The first binds more tightly here.

In the case of `COc1cccc(Oc2ccc(-c3cn[nH]c3)cc2C(=O)O)c1` [Compound 9i, 2-(3-methoxyphenoxy)-5-(1H-pyrazol-4-yl)benzoic acid], the Ki is reported as 2.5 µM.
